Experimental data as given in patent publication US4407795A, “Inclusion compound of p-hexadecylamino benzoic acid in cyclodextrin and method of use” (American Cyanamid Company, priority 1981, dated 1983).
“Also recorded” adds a separate entry of the source.

What was measured:
[1] = in vivo; cited from earlier work
[2] = rat; cited from earlier work
[3] = Effects on arterial wall / atherosclerotic plaque; assay type: in vivo
[4] = Serum lipoproteins; assay type: in vivo
[5] = test system: fatty acyl-CoA: cholesterol acyl transferase (ACAT); assay: Inhibition of arterial cholesterol-esterifying enzyme; assay type: biochemical; details: in words
[6] = Luminal narrowing and myocardial blood flow; assay type: in vivo
[7] = cited from earlier work
[8] = mainly as glucose formed by enzymatic hydrolysis; cited from earlier work
[9] = in words; cited from earlier work

Compound: N[C@H](Cc1cc(I)c(Oc2cc(I)c(O)c(I)c2)c(I)c1)C(=O)O [D-thyroxine]
- lowering blood lipids [1]: effective to varying degrees in lowering blood lipids

Compound: COc1ccc2c(c1)c(CC(=O)O)c(C)n2C(=O)c1ccc(Cl)cc1 [Indomethacin]
- bioavailability with β-cyclodextrin [2]: enhance the bioavailability

Compound: CCOC(=O)C(C)(C)Oc1ccc(Cl)cc1 [clofibrate]
- lowering blood lipids [1]: effective to varying degrees in lowering blood lipids

Compound: O=C(O)c1cccnc1 [nicotinic acid]
- lowering blood lipids [1]: effective to varying degrees in lowering blood lipids

Compound: CCCCCCCCCCCCCCCCNc1ccc(C(=O)[O-])cc1.[Na+] [p-hexadecylamino benzoic acid sodium salt]
- area and thickness of the plaque (incidence and severity of plaque formation) ([3]; arterial wall): decrease of both the area and the thickness of the plaque
- deposition of collagen and elastin ([3]; arterial wall): reduction of deposition of connective-tissue collagen and elastic-fiber elastin
- formation of the extracellular matrix and trapping of very low-density lipoproteins ([3]; arterial wall): lowering of the formation of the extracellular matrix and its trapping of very low-density lipoproteins
- immobilization of cholesterol in the form of ester ([3]; arterial wall): decreased immobilization of cholesterol in the form of ester
- smooth-muscle cell proliferation ([3]; arterial wall): decreased smooth-muscle cell proliferation
- calcium deposition ([3]; arterial wall / plaque, sodium salt): reduced calcium deposition; also recorded: minimizes the calcium deposition in the plaque
- progression of atherosclerosis ([3]; in words): inhibit the progression of atherosclerosis
- high-density lipoprotein in the serum, increase ([4]; in vivo): 2 fold
- HDL concentrations ([4]; in words): elevates HDL concentrations
- very low-density lipoproteins ([4]; in words): antiatherogenic decrease in the atherogenic very low-density lipoproteins
- inhibition of arterial cholesterol-esterifying enzyme (ACAT) [5]: inhibited by this compound
- reduction in the luminal narrowing ([6]; 4 major coronary arteries): 2 fold
- luminal narrowing in major peripheral arteries ([6]; major peripheral arteries): Reductions in luminal narrowing are seen in major peripheral arteries as well
- myocardial blood flow ([6]; non-stressed and stressed heart): increases in myocardial blood flow in the non-stressed and the stressed heart

Compound: O=C(O)c1ccccc1O [salicylic acid]
- bioavailability in man as β-cyclodextrin inclusion compound [7]: increased bioavailability

Compound: CCCCCCCCCCCCCCCCCC(=O)O [stearic acid]
- bioavailability with β-cyclodextrin [2]: enhance the bioavailability

Compound: OC[C@H]1O[C@@H]2O[C@H]3[C@H](O)[C@@H](O)[C@@H](O[C@H]4[C@H](O)[C@@H](O)[C@@H](O[C@H]5[C@H](O)[C@@H](O)[C@@H](O[C@H]6[C@H](O)[C@@H](O)[C@@H](O[C@H]7[C@H](O)[C@@H](O)[C@@H](O[C@H]8[C@H](O)[C@@H](O)[C@@H](O[C@H]1[C@H](O)[C@H]2O)O[C@@H]8CO)O[C@@H]7CO)O[C@@H]6CO)O[C@@H]5CO)O[C@@H]4CO)O[C@@H]3CO [β-cyclodextrin]
- absorbed by man upon oral administration [8]: less than 0.01%
- toxicity [9]: lack of toxicity
